Measured values taken from ChEMBL document CHEMBL4043140, “Synthesis of different heterocycles-linked chalcone conjugates as cytotoxic agents and tubulin polymerization inhibitors” (Bioorg Med Chem, 2017).

Legend:
[1] = system: HCT-116; assay: Antiproliferative activity against human HCT116 cells after 48 hrs by MTT assay; type: functional, cell-based; conditions: HCT-116, 48 h
[2] = system: HCT-15; assay: Antiproliferative activity against human HCT15 cells after 48 hrs by MTT assay; type: functional, cell-based; conditions: HCT-15, 48 h
[3] = system: NCI-H460; assay: Antiproliferative activity against human NCI-H460 cells after 48 hrs by MTT assay; type: functional, cell-based; conditions: NCI-H460, 48 h
[4] = Antiproliferative activity against human U87 cells after 48 hrs by MTT assay; type: functional, cell-based, U-87MG ATCC; conditions: U-87 MG
[5] = system: DU-145; assay: Antiproliferative activity against human DU145 cells after 48 hrs by MTT assay; type: functional, cell-based; conditions: DU-145, 48 h
[6] = system: PC-3; assay: Antiproliferative activity against human PC3 cells after 48 hrs by MTT assay; type: functional, cell-based; conditions: PC-3, 48 h
[7] = system: A549; assay: Antiproliferative activity against human A549 cells after 48 hrs by MTT assay; type: functional, cell-based; conditions: A549, 48 h

Row | Structure (SMILES) | IC50 [1] [µM] | IC50 [2] [µM] | IC50 [3] [µM] | IC50 [4] [µM] | IC50 [5] [µM] | IC50 [6] [µM] | IC50 [7] [µM]
1 | COc1ccc(C(=O)/C=C/c2ccc(OCCCN3CCc4ccccc43)c(OC)c2)cc1 | > 20 | 19.9 | > 20 | 15.2 | 16.1 | > 20 | 18.7
2 | COc1cc(/C=C/C(=O)c2ccc(C)cc2)ccc1OCCCN1CC(C)OC(C)C1 (stereo unspecified) | 5.45 | 8.69 | > 20 | 4.21 | > 20 | > 20 | 9.12
3 | COc1cc(/C=C/C(=O)c2ccc(Cl)cc2Cl)ccc1OCCCCN1CCCCC1 | > 20 | > 20 | 16.3 | 6.09 | 5.73 | 7.29 | 9.48
4 | COc1ccc(C(=O)/C=C/c2ccc(OCCCn3nc(C)cc3C)c(OC)c2)cc1 | 3.97 | 4.03 | 8.96 | 6.93 | 5.74 | 4.78 | 3.7
5 | COc1ccc(C(=O)/C=C/c2ccc(OCCCN3CC(C)OC(C)C3)c(OC)c2)cc1 (stereo unspecified) | 7.87 | 8.64 | 4.18 | 5.67 | 3.27 | > 20 | 7.42
6 | COc1cc(/C=C/C(=O)c2ccc(Br)cc2)ccc1OCCCCN1CCCCC1 | > 20 | 8.97 | > 20 | 4.01 | > 20 | 7.54 | 9.06
7 | COc1cc(/C=C/C(=O)c2ccc(Cl)cc2Cl)ccc1OCCCN1CC(C)OC(C)C1 (stereo unspecified) | > 20 | > 20 | > 20 | > 20 | > 20 | 8.87 | > 20
8 | COc1cc(/C=C/C(=O)c2ccccc2)ccc1OCCCCN1CCCCC1 | > 20 | > 20 | > 20 | > 20 | > 20 | 9.18 | > 20
9 | COc1cc(/C=C/C(=O)c2ccc(Cl)cc2Cl)ccc1OCCCN1CCc2ccccc21 | 19.2 | > 20 | > 20 | 19.8 | > 20 | > 20 | > 20
10 | COc1cc(/C=C/C(=O)c2ccccc2O)ccc1OCCCN1CCCCC1 | 2.01 | 3.24 | 1.63 | 2.87 | 2.73 | 1.95 | 3.13
11 | COc1cc(/C=C/C(=O)c2ccc(Cl)cc2)ccc1OCCCCN1CCCCC1 | > 20 | 8.11 | 10.2 | 8.01 | 7.74 | 6.84 | 8.99
12 | COc1cc(/C=C/C(=O)c2ccc(Cl)cc2Cl)ccc1OCCN1CCOCC1 | 19.9 | 18.2 | > 20 | > 20 | 6.74 | 5.12 | > 20
13 | COc1ccc(C(=O)/C=C/c2ccc(OCCCN3CCCc4ccccc43)c(OC)c2)cc1 | > 20 | > 20 | > 20 | 18.2 | > 20 | > 20 | > 20
